Assay results from patent US8242166B2, “C(10) ethyl ester and C(10) cyclopropyl ester substituted taxanes” (Florida State University Research Foundation, Inc., priority 2008, dated 2012).
Several values for one entry are separate records, joined by “and”; a condition that tells them apart may be missing. Equal values may be shown once. Read-outs that look alike come from different tables or passages of the source.

How the values were obtained:
[1] = system: PANC-1; experiment: MTT cytotoxicity (IC50), PANC-1; format: cell-based; conditions: Homo sapiens, 72 h, read-out: IN Vitro IC50 (nm) Panc
Experimental: (§1) Compound 17932 was tested in four of these cell lines, while the remaining compounds were tested in all of these cell lines. All cell lines were maintained in RPMI-1640 tissue culture medium (TCM, supplemented with antibiotics and 10% fetal bovine serum) and cultured at 37° C. in humidified air containing 5% CO2. To assess the antiproliferative effects of the test compounds, 172 μL of tumor cell suspension (1.45×10^4 cells/ml) were added to each well of a 96-well plate and incubated for 24 h at 37° C. in 5% CO2 in air to allow cells to adhere. Seven 2-fold drug dilutions in TCM/DMSO were performed in triplicate in separate 96-well plates and 28 μL was transferred to the wells containing tumor cells (200 μL final volume/0.1% DMSO). Plates were incubated for 72 h and cell viability was determined by adding 50 μL of warm TCM containing 5 mg/mL MTT (3-[4,5-dimethylthiazol-2-yl]-2,5-diphenyltetrazolium bromide) to each well and incubating for 1 h at 37° C. Plates were processed and the absorbances of the resulting solutions were measured by a plate reader at 570 nm. […] (GraphPad Prism version 4.00 for Windows). Studies were conducted by Taxolog, Inc., Tallahassee, Fla.

[2] = system: human BxPC-3 human pancreatic xenograft; format: in vivo
Experimental: Method: Twenty four (24) hours after a whole body irradiation with a γ-source (7.0 Gy, Co^60, INRA, Dijon, France) 20×10^6 BxPC-3 cells in 200 μl of RPMI 1640 culture medium were subcutaneously injected in the right flank of 8 female Nude rats to generate tumor material. When the tumor size reaches approximately 1,000 mm^3, the tumors were surgically excised for implantation into recipient Nude female rats. Twenty four (24) hours after a whole body irradiation (7.0 Gy, Co^60, INRA, Dijon, France), fresh BxPC-3 tumor fragments were sc implanted in the right flank of 52 Nude female rats (1 fragment/rat) at D0 using surgical pliers and skin was stitched. The antitumor activity study was started at D21 when the mean tumor volume has reached 321.6±131.2 mm^3. Before the start of treatments, 42 tumor bearing rats out of 52 grafted were randomized into 7 groups of 6 animals.
[…]. At 7 mg/kg/inj, only two treatments were performed at D21 and D42 due to severe body weight loss.

[3] = system: MX1 human tumor xenografts
[4] = system: HT29; experiment: MTT cytotoxicity (IC50), HT29; format: cell-based; conditions: Homo sapiens, HT-29, 72 h, read-out: IN Vitro IC50 (nm) HT29
Experimental: as §1

[5] = system: TK-10; experiment: MTT cytotoxicity (IC50), TK-10; format: cell-based; conditions: Homo sapiens, 72 h, read-out: IN Vitro IC50 (nm) TK10
Experimental: as §1

[6] = system: HCT116; experiment: MTT cytotoxicity (IC50), HCT116; format: cell-based; conditions: Homo sapiens, HCT-116, 72 h, read-out: IN Vitro IC50 (nm) HCT116
Experimental: as §1, with “All” for “Compound 17932 was tested in four of these cell lines, while the remaining compounds were tested in all of these cell lines. All”

Structure (SMILES): CCC(=O)O[C@H]1C(=O)[C@@]2(C)C([C@H](OC(=O)c3ccccc3)[C@]3(O)C[C@H](OC(=O)[C@H](O)[C@@H](NC(=O)OC4CCC4)c4cccs4)C(C)=C1C3(C)C)[C@]1(OC(C)=O)CO[C@@H]1C[C@@H]2O (stereo partly shown) [Compound 19244]
- IC50 [1]: 1.2 nM
- tolerability of repeated IV treatments ([2]; 5 mg/kg/inj): well tolerated
- mean doubling time (DT) of tumors ([2]; 5 mg/kg/inj IV, repeated): 19.3 ± 6.5 days
- time to reach volume (T to V) of 1,000 mm^3 ([2]; 5 mg/kg/inj IV, repeated): 46.0 ± 11.6 days
- MBWC D21-D26 ([2]; 5 mg/kg/inj IV, after the first injection): −15.9±5.6%
- optimal T/C % value ([2]; 5 mg/kg/inj IV, at D53): 27.7%
- tolerability of repeated IV treatments ([2]; 7 mg/kg/inj): not tolerated
- rats out of six alive at the end of the study ([2]; 7 mg/kg/inj IV): two
- MBWC D21-D26 ([2]; 7 mg/kg/inj IV, after the first treatment): −20.1±5.7%
- antitumor activity ([2]; repeated IV injections at 5 and 7 mg/kg/inj): marked antitumor activity
- % TGD ([3]; 7.5 mg/kg iv qd × 1): −3% and −2.64%
- Median TTE ([3]; 7.5 mg/kg iv qd × 1): 16.72 days
- T-C ([3]; 7.5 mg/kg iv qd × 1): -0.45 days
- activity (logrank test) ([3]; 7.5 mg/kg iv qd × 1): nonsignificant activities
- CR (complete regression) ([3]; 7.5 mg/kg iv qd × 1, n=5): 0
- NTR (non-treatment-related death) ([3]; 7.5 mg/kg iv qd × 1, n=5): 0
- PR (partial regression) ([3]; 7.5 mg/kg iv qd × 1, n=5): 0
- TFS (tumor-free survivor) ([3]; 7.5 mg/kg iv qd × 1, n=5): 0
- TR (treatment-related death) ([3]; 7.5 mg/kg iv qd × 1, n=5): 0
- % TGD ([3]; 15 mg/kg iv qd × 1): 83% and 83.42%
- Median TTE ([3]; 15 mg/kg iv qd × 1): 31.49 days
- T-C ([3]; 15 mg/kg iv qd × 1): 14.32 days
- activity (logrank test) ([3]; 15 mg/kg iv qd × 1): nonsignificant activities
- CR (complete regression) ([3]; 15 mg/kg iv qd × 1, n=5): 0
- NTR (non-treatment-related death) ([3]; 15 mg/kg iv qd × 1, n=5): 0
- PR (partial regression) ([3]; 15 mg/kg iv qd × 1, n=5): 0
- TFS (tumor-free survivor) ([3]; 15 mg/kg iv qd × 1, n=5): 0
- TR (treatment-related death) ([3]; 15 mg/kg iv qd × 1, n=5): 0
- % TGD ([3]; 30 mg/kg iv qd × 1): 235% and 235.44%
- MTV (n), Day 60 ([3]; 30 mg/kg iv qd × 1): 0.00 (2) mm^3
- Median TTE ([3]; 30 mg/kg iv qd × 1): 57.59 days
- T-C ([3]; 30 mg/kg iv qd × 1): 40.42 days
- activity (logrank test) ([3]; 30 mg/kg iv qd × 1): significant activity
- CR (complete regression) ([3]; 30 mg/kg iv qd × 1, n=5): 4
- NTR (non-treatment-related death) ([3]; 30 mg/kg iv qd × 1, n=5): 0
- PR (partial regression) ([3]; 30 mg/kg iv qd × 1, n=5): 1
- TFS (tumor-free survivor) ([3]; 30 mg/kg iv qd × 1, n=5): 2
- TR (treatment-related death) ([3]; 30 mg/kg iv qd × 1, n=5): 0
- mice survived to D60 ([3]; 30 mg/kg iv qd × 1, n=5): two
- transient CRs ([3]; 30 mg/kg iv qd × 1, n=5): 2
- IC50 [4]: 0.6 nM
- IC50 [5]: 0.4 nM
- IC50 [6]: 0.4 nM
